Test results reported in ChEMBL document CHEMBL1133752, “Synthesis and antiviral evaluation of trisubstituted indole N-nucleosides as analogues of 2,5,6-trichloro-1-(beta-D-ribofuranosyl)benzimidazole (TCRB)” (J Med Chem, 2000).

Key:
[1] = ELISA assay was performed using BSC-1 cells to determine activity against HSV-1; format: functional, cell-based, Cercopithecidae
[2] = Inhibition of KB cell growth was determined.; format: functional, cell-based; settings: Homo sapiens
[3] = tested on: HFF; assay: Antiviral activity against HCMV was determined by yield reduction assay using HFF cells; format: functional; settings: Homo sapiens
[4] = tested on: HFF; assay: Antiviral activity against HCMV was determined by plaque reduction assay using HFF cells; format: functional, cell-based; settings: Homo sapiens
[5] = tested on: HFF; assay: Visual cytotoxicity was scored on HFF cells at time of HCMV plaque enumeration; format: functional, cell-based; settings: Homo sapiens

Row | SMILES | IC50 [1] | IC50 [2] | IC90 [3] | IC50 [4] | IC50 [5]
1 | OC[C@H]1O[C@@H](n2c(Cl)nc3cc(Cl)c(Cl)cc32)[C@H](O)[C@@H]1O | 102 µM | 210 µM | 1.4 µM | – | –
2 | OC[C@H]1O[C@@H](n2c(SCc3ccccc3)cc3cc(Cl)c(Cl)cc32)CC1O (some centres not stated) | 40 µM | 60 µM | – | 32 µM | 32 µM
3 | Clc1cc2cc(Br)[nH]c2cc1Cl | 70 µM | 70 µM | – | 14 µM | 32 µM
4 | OC[C@H]1OC(n2c(Cl)cc3cc(Cl)c(Cl)cc32)[C@H](O)[C@@H]1O (some centres not stated) | > 100 µM | > 100 µM | 50 µM | 42 µM | > 100 µM
5 | O=C(O)P(=O)(O)O [FOSCARNET] | – | – | – | 39 µM | > 100 µM
6 | Nc1nc2c(ncn2COC(CO)CO)c(=O)[nH]1 [GANCICLOVIR] | 3.5 µM | > 100 µM | 1.6 µM | – | > 100 µM
7 | OC[C@H]1OC(n2c(Br)cc3cc(Cl)c(Cl)cc32)[C@H](O)[C@@H]1O (some centres not stated) | > 100 µM | > 100 µM | 42 µM | 18 µM | 100 µM
